Measurements reported in patent EP4039094A1, “NOVEL ANTIFUNGAL COMPOUNDS” (Max-Planck-Gesellschaft zur Förderung der Wissenschaften …, priority 2021, dated 2022).
pIC50: −log10 of the molar value. Read-outs that look alike come from different tables or passages of the source.

Molecular target: T1, Stp1/Stp4/Stp3 subcomplex (Mycosarcoma maydis, UniProt A0A0D1C5E3+A0A0D1CU07+A0A0D1EAN2)
T1 sequence (A0A0D1CU07 29-515): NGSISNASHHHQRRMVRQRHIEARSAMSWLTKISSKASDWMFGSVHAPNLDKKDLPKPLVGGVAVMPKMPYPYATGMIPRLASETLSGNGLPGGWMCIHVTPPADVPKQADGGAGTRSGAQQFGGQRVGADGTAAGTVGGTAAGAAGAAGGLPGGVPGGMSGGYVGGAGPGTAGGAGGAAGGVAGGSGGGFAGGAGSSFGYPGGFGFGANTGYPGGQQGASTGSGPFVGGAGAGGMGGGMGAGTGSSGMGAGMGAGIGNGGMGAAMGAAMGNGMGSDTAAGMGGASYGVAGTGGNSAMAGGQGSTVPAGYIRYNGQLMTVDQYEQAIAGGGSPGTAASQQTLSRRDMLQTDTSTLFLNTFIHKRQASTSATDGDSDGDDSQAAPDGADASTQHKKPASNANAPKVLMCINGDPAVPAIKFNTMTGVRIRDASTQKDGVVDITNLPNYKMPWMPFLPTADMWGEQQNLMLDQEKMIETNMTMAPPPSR
T1 sequence (A0A0D1C5E3 24-129): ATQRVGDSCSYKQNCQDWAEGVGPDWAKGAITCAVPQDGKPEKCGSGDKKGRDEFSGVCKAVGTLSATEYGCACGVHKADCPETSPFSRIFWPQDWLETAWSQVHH
T1 sequence (A0A0D1EAN2 25-327): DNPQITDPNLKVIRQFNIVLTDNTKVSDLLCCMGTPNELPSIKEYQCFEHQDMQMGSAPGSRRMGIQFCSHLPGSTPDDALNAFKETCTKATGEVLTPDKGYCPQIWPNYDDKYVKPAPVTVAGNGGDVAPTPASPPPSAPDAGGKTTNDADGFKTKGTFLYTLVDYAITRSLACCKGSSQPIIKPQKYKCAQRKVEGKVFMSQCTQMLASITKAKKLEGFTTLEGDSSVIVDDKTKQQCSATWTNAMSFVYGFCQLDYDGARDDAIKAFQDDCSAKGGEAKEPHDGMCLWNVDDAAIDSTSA
Experiment: Alamar Blue viability assay in S. cerevisiae 2-hybrid strain NL73 (viability depends on Stp complex formation)
Format: cell-based, U. maydis
Conditions: for pIC50: read-out: IC50
Source text: To develop a screening platform based on Stp complex formation, a Saccharomyces cerevisiae 2-hybrid system was used. […] After co-transformation, reporter gene transcription is activated only if the two fusion proteins interact in the yeast nucleus. Moreover, the S. cerevisiae strain AH109 harbours the reporter genes ADE2 and HIS3, which encode for two enzymes that are crucial for adenine (Ade) and histidine (His) biosynthesis and thereby enable nutritional selection as a read-out for the interaction between proteins. In the following experiments, growth on high-stringency synthetic defined (SD) medium (SD -Leu -Trp -Ade -His) was used to identify if the complex members interact between them causing expression of ADE2 and HIS3. Additionally, strains were also grown on low-stringency medium (SD -Leu -Trp) to confirm their viability. […] All experiments were done with three independent transformants to exclude false positives due to spontaneous mutations.
The S. cerevisiae strain AH109 from Clontech (Saint-Germain-en-Laye, France) is auxotrophic for tryptophan, leucine, adenine and histidine. In addition, lacz is under control of the MEL1 UAS to be used as readout for quantitative β-galactosidase assays.
The resulting test strain NL73 (AD-Stp4/BD-Stp1/myc-Stp3) expresses the Stp1/Stp4/Stp3 subcomplex. NL73 carries the following three plasmids: pGBKT7-stp1: pGBKT7 vector expressing proteins fused to the GAL4 DNA binding domain (DNA-BD). pGBKT7 also contains the T7 promoter, a c-Myc epitope tag, and a MCS. The vector carries a Kanamycin resistance gene (Kanr) for selection in E. coli and the TRP1 nutritional marker for selection in yeast. pGAD-stp4: pGADT7 vector expressing proteins fused to a GAL4 activation domain (AD). The GAL4 AD fusion contains an N-terminal nuclear localization signal that targets the protein to the yeast nucleus, and a HA Tag, located between the GAL4 AD and the protein of interest. The vector carries an ampicillin resistance gene (Ampr) for selection in E. coli and a LEU2 nutritional marker for selection in yeast. pYEA-stp3-myc: pYEA vector expressing proteins under the control of the phosphoglycerate kinase promoter. The vector carries an ampicillin resistance gene (Ampr) for selection in E. coli and an ADE2 nutritional marker for selection in yeast. As control strain, NL70 containing empty vectors was generated (AH109Δabc9 pGAD::LEU2 pGBK::TRP1 pYEA::ADE2).
After that, 25 µl of NL73 cell suspension were dispensed into the assay plates using Multidrop Combi (Thermofisher Scientific) giving a final screening concentration of 10 µM. One column of the assay plate was filled with 25 µl of NL70 control strain cell suspension as negative control. Plates were sealed with Breathe-Easy sealing membrane (Sigma, Z380059), lidded and incubated in a humid chamber over night at 30°C and 140 rpm in an HT Multitron Pro (Infors). […] For the viability assay, the alamar Blue HS Cell Viability reagent (Invitrogen, #A50101) was pre-diluted using an equal amount of dVE-H2O and 5 µl of diluted Alamar Blue were added to the screening plates using Multidrop Combi. The plates were sealed again and incubated for 4 h at room temperature, unlidded. […] Screening data was normalized to DMSO-treated NL73 cells (that received DMSO in the same concentration as in samples where compounds dissolved in DMSO were added) being 100% and DMSO-treated NL70 cells representing 0% viability and analyzed with Quattro Software Suite (Quattro Research GmbH).

[1] = inhibitory activity on NL73 viability, Table 6

| SMILES | pIC50 [1] | pIC50 (Alamar Blue assay, Table 8) | IC50 (Alamar Blue assay, Table 8) |
| --- | --- | --- | --- |
| CCn1c2c(c(SCc3cccc(C)c3)nc1=O)CCC2 [Compound 2-C] | 5.21 | – | – |
| O=S(=O)(Nc1cnc2c(cnn2C2CCCCC2)c1)c1cc(F)ccc1F [Compound 3-B] | – | 5.66 | – |
| CCCn1c2c(c(SCc3ccccc3F)nc1=O)CCC2 [Compound 3-C] | 5.19 | – | – |
| Cn1ncc2cc(NS(=O)(=O)c3cc(F)ccc3F)cnc21 [Compound 4-B] | – | 4.99 | – |
| CC(C)n1ncc2cc(NS(C)(=O)=O)cnc21 [Ref1-B, reference compound] | – | – | inactive |
| O=S(=O)(Nc1cnc2[nH]ncc2c1)c1cc(F)ccc1F [Ref2-B, reference compound] | – | – | inactive |
